# Measured values from US20250249144A1, “PEPTIDE AMPHIPHILE SUPRAMOLECULAR POLYMERS FOR SPRAY DELIVERY AND TISSUE REGENERATION APPLICATIONS” (The University of Southern Mississippi, priority 2024, published 2025).
# Non-standard residues stand in square brackets, D forms with d. Residues, ends and D or L forms follow the SMILES beside them. ξ: configuration not given here. *: point of attachment. Palmitoyl = CCCCCCCCCCCCCCCC(=O)*; aThr = C[C@H](O)[C@H](N)C(=O)O; ξV = CC(C)C(N)C(=O)O
# Experiments:
# diabetic wound = diabetic wound model; cited from earlier work
# dermal wound = settings: rat full thickness excision model; cited from earlier work
# ERK receptor = settings: cited from earlier work
# [1] = tested on: full thickness injury, atopic dermatitis; settings: rodent models of full thickness injury and atopic dermatitis; cited from earlier work
# receptor of EPO = molecular target: T1, receptor of EPO (Homo sapiens, UniProt P19235); settings: cyclized through the cysteine residues; cited from earlier work
# T1 sequence (P19235 25-508): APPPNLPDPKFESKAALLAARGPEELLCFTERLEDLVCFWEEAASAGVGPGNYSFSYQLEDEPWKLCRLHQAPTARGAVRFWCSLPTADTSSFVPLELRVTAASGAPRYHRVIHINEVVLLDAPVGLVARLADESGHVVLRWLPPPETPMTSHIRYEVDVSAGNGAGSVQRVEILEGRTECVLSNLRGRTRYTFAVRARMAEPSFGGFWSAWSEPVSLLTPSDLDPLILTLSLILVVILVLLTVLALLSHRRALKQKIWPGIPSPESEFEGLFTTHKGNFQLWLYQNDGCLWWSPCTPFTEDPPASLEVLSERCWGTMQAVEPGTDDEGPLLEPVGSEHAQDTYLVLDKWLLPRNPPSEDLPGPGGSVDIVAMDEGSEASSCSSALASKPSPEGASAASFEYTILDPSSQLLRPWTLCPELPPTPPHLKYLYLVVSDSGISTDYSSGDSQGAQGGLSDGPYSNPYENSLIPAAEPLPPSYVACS
# erythropoiesis = settings: mice; cited from earlier work
# full thickness burn = assay: burn injury murine model, wound closure; type: in vivo; settings: mouse, 3 days and 7 days post treatment, one-way ANOVA, p<0.05
# Experimental: The benefits of, and potential for, regeneration of the biocompatible and bioactive PA nanofiber scaffold was assessed in a mouse burn injury model. […] (See FIGS. 5 and 6). A 1×1 cm diameter steel billet was heated to 100° C. in a dry heat bath. Mice were anesthetized using isoflurane throughout the procedures. After successful anesthesia had been achieved, mice were clipped circumferentially on their trunks/dorsum and prepped with betadine. Burn injury was accomplished by applying the previously heated billet to the dorsum of each animal for 10 seconds. A total of 6 applications of the rod (3 on each side of the midline back) produced an approx. 20% total body surface area (TBSA) full thickness burn. Mice were further wrapped with a self-adherent wrap to protect the wound. Mice were resuscitated using 1.0 mL i.p. saline (which included 0.03 mL Buprenex SR and 0.06 mL Meloxicam SR) and placed onto warming pads until full recovery from anesthesia was determined. 8 hours post-burn, they received a 2nd bolus of 1 mL i.p. fluid. […] Healing was assessed following a single application. […] Quantification of wound healing was accomplished by digital image planimetry with ImageJ at 3 days, and 7 days post treatment, with representative images of wound healing at day 15 post treatment also being provided.
molecule,measurement,setting,value
"N=C(N)NCCC[C@H](NC(=O)[C@@H](Cc1cnc[nH]1)NC(=O)[C@@H](N)CCC(N)=O)C(=O)N[C@H](CCC(=O)O)C(=O)N[C@@H](CC(=O)O)C(=O)NCC(=O)N[C@@H](CO)C(=O)O [QHREDGS, QHREDGS (SEQ ID NO.4)]",wound closure,diabetic wound,significantly accelerate wound closure
"CC(C)C[C@@H](NC(=O)CNC(=O)[C@@H](Cc1ccc(O)cc1)NC(=O)[C@@H](NC(=O)[C@H](NC(=O)[C@@H](N)CO)C(C)C)C(C)C)C(=O)N[C@@H](CCCNC(=N)N)C(=O)O [SVVYGLR, SVVYGLR (SEQ ID NO.: 3)]",dermal wound healing,dermal wound,effective in promoting dermal wound healing
"C[C@H](O)[C@H](NC(=O)[C@@H](CCCNC(=N)N)NC(=O)CNC(=O)[C@@H](CCC(=O)O)NC(=O)[C@@H](N)CCCNC(=N)N)C(=O)O [REGRT, REGRT (SEQ ID NO.2)] (H-R[dE]G[dR][aThr]-OH)",phosphorylation of the ERK receptor,ERK receptor,effective phosphorylation of the ERK receptor
same,wound healing,[1],promotion of wound healing
GGTYSCHFGPLTWVCKPQGG (SEQ ID NO.: 1) [EMP1],activation of the EPO receptor,receptor of EPO,capable of activating the receptor of EPO
same,erythropoiesis,erythropoiesis,stimulating erythropoiesis
CCCCCCCCCCCCCCCC(=O)NC(C(=O)N[C@H](C(=O)NCC(=O)N[C@@H](C)C(=O)NCC(=O)N[C@@H](C)C(=O)N[C@H](CCC(=O)O)C(=O)N[C@@H](CCC(=O)O)C(=O)N[C@H](CCC(=O)O)C(N)=O)C(C)C)C(C)C (stereo partly shown) [diluent PA] (Palmitoyl-[ξV]VGAGA[dE]E[dE]-NH2),"wound healing by digital image planimetry, significance vs control",full thickness burn,significant at 7 days
